# Results as given in paper PMC4671089, “Enhanced Detection of Antigen-Specific CD4^+ T Cells Using Altered Peptide Flanking Residue Peptide–MHC Class II Multimers” (The Journal of Immunology Author Choice, 2015).
# Where two headings read alike, the source gives them in different places.
# Legend:
# [1] = test system: CD4+ T cell clone DC-D8; assay: Multimer staining of CD4+ T cell clone DC-D8; assay type: cell-based, human; settings: histograms, Fig. 6C
# Experimental: (§1) Clonal CD4^+ T cells (1 × 10^5) specific for HA306–318 were resuspended with 1 μg DR1-Flu1 or DR1-Flu3 multimer and incubated for 20 min at 4°C ([45]). Cells were then washed twice with PBS, stained with Live/Dead fixable violet (ViViD; Invitrogen) for 10 min at room temperature and labeled with mouse anti-human CD4-allophycocyanin (BD Biosciences) for 20 min at 4°C. After two further washes in PBS, samples were acquired directly on a FACSCanto II flow cytometer (BD Biosciences). Data were analyzed using FlowJo software version 10 (Tree Star). All incubations with fluorochrome-conjugated pMHC-II multimers were performed in the dark.
# [2] = test system: CD4+ T cell clone 2C5 spiked at 1% into DR1+ PBMCs; assay: Multimer dilution assay; assay type: cell-based, human
# Experimental: Each multimer was serially diluted six times (1, 0.5, 0.25, 0.125, 0.0625, 0.0312, or 0.0156 μg with respect to the pMHC-II component) and used in a final volume of 20 μl to stain 1 × 10^6 DR1^+ PBMCs spiked at 1% with the CD4^+ T cell clone 2C5. After incubation for 20 min at 4°C, cells were washed twice in PBS, stained with Live/Dead fixable aqua (Invitrogen) for 10 min at room temperature and labeled with mouse anti-human CD3-FITC (Serotec), mouse anti-human CD4-allophycocyanin (BD Biosciences), mouse anti-human CD14–Pacific Blue (Invitrogen), and mouse anti-human CD19–Pacific Blue (Invitrogen) for 20 min at 4°C. After two further washes in PBS, samples were acquired directly on a FACSCanto II flow cytometer (BD Biosciences). Data were analyzed using FlowJo software version 10 (Tree Star).
# [3] = test system: CD4+ T cell clone 2C5; assay: pMHC-II multimer staining of CD4+ T cell clone 2C5; assay type: cell-based, human; settings: DR1-Flu3 versus DR1-Flu1 multimer; 1 μg multimer, 1 × 10^5 cells, 20 min at 4°C
# Experimental: as §1
# [4] = biological target: 2C5 TCR; assay: SPR equilibrium binding of 2C5 TCR to DR1-peptide; design: species or system human; settings: 25°C; for Kd: SPR equilibrium binding, Biacore 3000, CM5 chip, biotinylated pMHC-II immobilized on streptavidin, 2C5 TCR injected in eight serial dilutions, 45 μl/min
# Experimental: Binding analysis was performed using a Biacore 3000 (GE Healthcare) equipped with a CM5 sensor chip, as reported previously ([43], [44]). Between 200 and 400 response units of biotinylated pMHC-II was immobilized on streptavidin, which was chemically linked to the chip surface. pMHC-II was injected at a slow-flow rate (10 μl/min) to ensure uniform distribution on the chip surface. The 2C5 TCR was purified and concentrated to ∼100 μM on the day of analysis to minimize TCR aggregation. For equilibrium analysis, eight serial dilutions were carefully prepared and injected over the relevant sensor chip at a flow rate of 45 μl/min at 25°C. Results were analyzed using BIAevaluation 3.1, Microsoft Excel, and Origin 6.1. The KD values were calculated using a nonlinear curve fit [y = P1x/(P2 + x)].
# [5] = test system: CD4+multimer+ T cells in PBMCs after influenza vaccination; assay type: cell-based, human
# [6] = test system: Flu1 peptide-stimulated DR1+ PBMCs of donor 4 (CD4+ T cells); assay: Dual multimer staining following PBMC culture; assay type: cell-based, human; settings: dual stain 1 vs dual stain 2, donor 4
# Experimental: (§2) Flu1 peptide–stimulated, precultured PBMCs (5 × 10^5) were transferred to a 96-well plate and washed with PBS. Cell pellets were resuspended in 25 nM […] dasatinib (Axon Medchem, Reston, VA) and incubated for 30 min at 37°C. For each multimer, 0.5 μg was added directly to the cell pellet before incubating for 20 min on ice in the dark. Where dual staining with both PE- and allophycocyanin-conjugated multimers was used, 0.5 μg each was mixed per sample prior to addition to the cell pellets. Cells were then washed twice with cold PBS, followed by Live/Dead aqua (Life Technologies) staining to exclude dead cells. Surface staining was subsequently performed in PBS, 2.5% FCS, and 5 mM EDTA (FACS buffer), with the following cell surface markers: CD3-PerCP-Cy5.5 (BD Biosciences), CD4–Brilliant Violet 421 (BioLegend), CD14-FITC (BioLegend), and CD19-FITC (BioLegend). Cells were incubated for 20 min at 4°C in the dark before resuspending in FACS buffer for acquisition on a FACSCanto II (BD Biosciences). Data were analyzed using FlowJo version 10 (Tree Star).
# [7] = test system: CD4+ T cells in DR1+ PBMCs ex vivo; assay type: cell-based, human
# [8] = test system: CD4+ T cell clone DC-C10; assay: Multimer staining of CD4+ T cell clone DC-C10; assay type: cell-based, human; settings: histograms, Fig. 6B
# Experimental: as §1
# [9] = test system: CD4+ T cell clone 2C5 spiked into PBMCs; assay: Clone dilution assay; assay type: cell-based, human; settings: 0.125 μg multimer/1 × 10^6 PBMCs
# Experimental: PBMCs (2 × 10^6) were spiked at 1, 0.5, 0.25, 0.125, 0.0625, or 0.0312% with the CD4^+ T cell clone 2C5. Cell mixtures were then stained with 0.125 μg multimer/1 × 10^6 PBMCs and labeled with Abs as described in the previous section. Samples were acquired directly on a FACSCanto II flow cytometer (BD Biosciences) and analyzed using FlowJo software version 10 (Tree Star).
# [10] = test system: HA1.7 TCR; assay: Thermodynamic analysis (SPR, nonlinear van't Hoff) of HA1.7 TCR ligation; assay type: binding, human; settings: HA1.7-DR1-Flu3, 298 K; Biacore T100; 10 serial dilutions of TCR at 5, 10, 15, 20, 25, 30°C; triplicate
# Experimental: Thermodynamic analysis of HA1.7 TCR ligation to DR1-Flu3 was performed using a Biacore T100 (GE Healthcare) equipped with a CM5 sensor chip. Activation and pMHC-II loading were assessed as previously described ([40]). A total of 500 response units of biotinylated pMHC-II were immobilized to streptavidin, which was chemically linked to the chip surface. Equilibrium binding analysis was performed with 10 serial dilutions of the TCR individually injected at temperatures of 5, 10, 15, 20, 25, and 30°C. Experiments were performed in triplicate using a blank flow cell, A2-[…] and DR1-CLIP as negative controls in separate experiments. The binding response was determined by subtraction of the response measured on a negative control flow cell from the response measured on flow cells containing DR1-Flu3. Results were analyzed using BIAevaluation 3.1, Microsoft Excel, and Origin 6.1. The KD values were calculated using a nonlinear curve fit [y = (P1x)/(P2 + x)].
# [11] = test system: Flu1 peptide-stimulated DR1+ PBMCs (CD4+ T cells); assay: Multimer staining following PBMC culture; assay type: cell-based, human; settings: four DR1+ donors, 12 d after HA306–318 stimulation
# Experimental: as §2
# [12] = test system: HA1.7, F11, and C6 TCRs; settings: three TCRs HA1.7, F11, C6; presented by DR1; vs Flu1; cited from earlier work
# [13] = test system: HA1.7 TCR; settings: HA1.7-DR1-Flu1, 298 K, nonlinear regression of temperature vs free energy; previously published; cited from earlier work
# Text: FIGURE 1. The biophysical impact of altered C-terminal PFRs on TCR binding. SPR was used to determine equilibrium binding of the 2C5 TCR to DR1 complexed with either (A) native Flu1 (HA306−318, […]) or (B) altered Flu3 ([…]). (C) Previously published thermodynamic analysis of the HA1.7-DR1-Flu1 interaction ([40]). (D) HA1.7-DR1-Flu3 thermodynamic properties showing enthalpy (ΔH^o) and entropy (TΔS^o) at 298 K calculated by nonlinear regression of temperature (K) plotted against free energy (ΔG^o). TEXT PRINTED IN THE PICTURE: (A) 2C5-DR1-Flu1: KD = 30 ± 2 μM | (B) 2C5-DR1-F ...
# [14] = test system: T cells of three DR1+ donors; assay: IFN-γ ELISPOT; assay type: cell-based, human; settings: all three donors; data not shown
sequence,measurement,setting,value
"PKYVKQNTLKLAR [DR1-Flu3, HLA-DR1 heterodimer complexed with altered Flu3 ([…]); monomer in SPR, fluorochrome-tagged multimer in staining]",staining of clone DC-D8,[1],stained
same,identification of CD4+multimer+ population at 1 μg/1 × 10^6 PBMCs,"[2]; PBMCs spiked at 1% with 2C5, 20 min at 4°C",enabled clear visualization and accurate enumeration
same,lowest multimer concentration with distinct staining,"[2]; PBMCs spiked at 1% with 2C5, 20 min at 4°C, distinct staining at concentrations down to this value",0.0312 μg/1 × 10^6 PBMCs
same,optimal quantity of multimer per stain,[2]; greatest shift in MFI while reducing potential nonspecific staining,0.125 μg/1 × 10^6 PBMCs
same,mean fluorescence intensity (MFI) of staining of 2C5 clone,[3],A large increase in mean fluorescence intensity (MFI)
same,Kd,[4],16 ± 2 µM
same,"affinity of 2C5 TCR, fold stronger compared with wild-type C-terminal PFR sequence","[4]; SPR, vs DR1-Flu1",~2 fold
same,population of CD4+ T cells identified compared with DR1-Flu1 multimer,[5],identified a larger population of CD4^+ T cells
same,"detection of additional, presumably lower avidity, cells compared with DR1-Flu1",[6],"able to detect additional, presumably lower avidity, cells compared with DR1-Flu1"
same,"MFI, fold higher than DR1-Flu1",[7],3 fold
same,proportion of CD4+ T cells stained compared with DR1-Flu1 multimer,[7],stained a higher proportion of CD4^+ T cells
same,staining of clone DC-C10,[8],stained
same,ability to detect cognate CD4+ T cells across range of spiked frequencies,"[9]; 2C5 spiked at 1 to 0.0312%, compared with DR1-Flu1",far superior ability to detect cognate CD4^+ T cells across the entire range of spiked frequencies
same,TΔS°,[10],20 kcal/mol
same,ΔH°,[10],16.4 kcal/mol
same,CD4+multimer+ population size and MFI compared with DR1-Flu1 multimer,[11],"detected larger populations of CD4^+multimer^+ cells, with generally greater MFIs"
"PKYVKQNTLKLAR [Flu3, C-terminally modified variants of HA306−318 with Arg at P11 (Flu3, […])]",binding affinity increase,[12],~2 fold
"PKYVKQNTLKLAT [DR1-Flu1, HLA-DR1 heterodimer complexed with native Flu1 (HA306−318, …); monomer in SPR, fluorochrome-tagged multimer in staining]",staining of clone DC-D8,[1],stained
same,identification of cognate CD4+ T cells at lower reagent concentrations,"[2]; below 1 μg/1 × 10^6 PBMCs, PBMCs spiked at 1% with 2C5",failed to identify cognate CD4^+ T cells
same,Kd,[4],30 ± 2 µM
same,staining of clone DC-C10,[8],stained
same,spiked frequency at which precise quantification was almost impossible,[9]; poor separation,≤ 0.25%
same,TΔS°,[13],23.8 kcal/mol
same,ΔH°,[13],18 kcal/mol
"PKYVKQNTLKLAT [Flu1, influenza HA306–318 (Flu1), …]",T cell responses in IFN-γ ELISPOT assays,[14],robust T cell responses
